pIC50: −log10 of the molar value.
Tests used:
[1] = test system: TCF4/β-catenin transcriptional pathway; experiment: TCF4/β-catenin reporter gene assay (pTOPFlash luciferase) in SW480 cells; format: cell-based; conditions: 24 hours treatment, firefly normalized to renilla
Description: The compound having general formula (I) wherein R1 is 2-naphthyl and R2 is phenyl is used for this experiment (it is referred to as ‘TCF4 compound’ hereinafter). Each transfection was performed in duplicate and repeated at least three times. SW480 cells were transfected transiently with 4.0 μg firefly luciferase reporter plasmid (pTOPFlash) and 0.8 μg renilla luciferase reporter plasmid (pRL-null). Firefly luciferase activity was normalized to renilla luciferase activity.
SW480 cells were maintained in DMEM with 10% fetal bovine serum supplemented with non-essential amino acid and antibiotics. Transient transfections into SW480 cells were carried out by Superfect (Qiagen,301307). For TCF4/β-catenin reporter gene assay, 4 μg of pTOPFlash and 0.8 μg of pRL-null were cotransfected. After 24 hours of transfection, SW480 cells were treated with TCF4 compound at varying concentrations. Firefly luciferase and renilla luciferase activities were measured 24 hours after said TCF4 compound treatment, and the firefly luciferase activity was normalized to the renilla luciferase activity (FIG. 1).

[2] = test system: caspase-3; experiment: Caspase-3 activation in SW480 cells (Cbz-DEVD-R110 substrate); format: cell-based; conditions: SW480 cells treated 24 hours, dose dependent
Description: FIG. 6. TCF4 compound induces caspase-3 activation in a dose-dependent manner. SW480 cells were treated with TCF4 compound for 24 hours. Whole cell protein extracts were prepared and 100 μg aliquots of protein extracts were incubated with Cbz-DEVD-R110 substrate for 2 hours at 37° C. Relative fluorescence unit (RFU) was obtained by subtracting the unit values of the blank control from the experimental measured values. SW480 cells were treated with TCF4 compound for 24 hours, collected and washed with PBS, and lysed in 100 μl ice cold hypotonic lysis buffer which is commercially available (Promega). 100 μg of the cell extracts were incubated in reaction buffer containing Cbz-DEVD-R110 (caspase-3 substrate: Promega) at 37° C. for 2 hours (FIG. 6). It is clear the FIG. 6 that caspase-3 activity was stimulated by the presence of the TCF4 compound, in a dose dependent manner.

[3] = test system: SW480 cells; experiment: Soft agar cell growth and colony formation assay; format: cell-based; conditions: SW480 cells in soft agar, 8 days
Description: FIG. 7. Cell growth and colony formation assays. SW480 cells were treated with TCF4 compound. The resulting cells are placed in a soft agar plate and incubated at 37° C. in CO2 incubator for 8 days. Number of colonies were counted under microscope. Agar plates were prepared to contain 10% FBS, 2 mM L-glutamine, 0.1 mM non-essential amino acid, 1×pen/strep and 1.6% agarose for bottom layer and DMEM containing 10% FBS, 2 mM L-glutamine, 0.1 mM non-essential amino acid, 1×pen/strep for upper layer. TCF4 compound solution and upper layer solution containing agarose were mixed and SW480 cells were added and solidified. Plates were incubated 37° C. at CO2 incubator for 8 days after solidification at room temperature for 30 min and colonies were counted under microscope (FIG. 7).

[4] = molecular target: T1, CBP (Homo sapiens, UniProt Q92793); experiment: Binding of 14C-TCF4 compound to nuclear extracts of SW480 transfected with CBP or β-catenin; conditions: 14C-labelled compound, nuclear lysate of transfected SW480, 4° C., 18 hours
T1 construct: expressed in transfected cells; host or cells: SW480
Description: FIG. 3. […] SW480 cells were transiently transfected with β-catenin or CBP expression plasmid. 48 hours after transfection, nuclear protein extracts were collected. 14C-Tcf4 was incubated with nuclear lysate.
Nuclear protein extracts from SW480 transfected with CBP expression vector or wild type β-catenin expression vector were collected using NE-PER Nuclear and Cytoplasmic Extraction Reagents (Pierce) and incubated with ^14C-TCF4 compound at 4° C. for 18 hours. Each samples were washed with Sephadex G-25 columns equilibrated with 5 mL of PBB (20 mM HEPES, pH 7.9, 60 mM NaCl, 6 mM MgCl2, 0.5 mM EDTA, 0.1% NP-40, 20% glycerol, 5 mM 2-ME, 1 mM PMSF) and protein samples eluted by centrifugation were transferred to a scintillation vial containing 2 mL of scintillation fluid. Radio activities were counted using scintillation counter (Beckman).

[5] = test system: SW480 cells; experiment: Combination with 5-FU tested against SW480 cell lines; format: cell-based
Description: It has been known from previous art that 5-FU [Fluorouracil; 5-fluoro-2,4(1H, 3H)-pyrimidinedione] can induce apoptosis in cultured oral cancer cells (D. Tong et al., Oral Oncology 36, 2000 236-241). Further, it is also known that colon cancer has a sensitivity to 5-FU (D. Arango et al., Cancer Research 61, 2001 4910-4915). In the present invention, therefore, the combination of 5-FU having established anti-cancer activity and the compounds of formula (I) of the present invention is prepared and tested against SW480 cell lines. […] Therefore, it is yet another aspect of the present invention to provide a method of treating cancer, which comprises administering to a subject a safe and effective amounts of the compound having formula (I) of claim 1 together with other anti-cancer agent such as 5-Fu.

[6] = test system: CBP-mediated transcriptional activation; experiment: CBP-mediated transcriptional activation, pTOPFlash with CBP and/or β-catenin cotransfection in SW480 cells; format: cell-based; conditions: SW480 cells cotransfected with pTOPFlash
Description: FIG. 2. […] SW480 cells were cotransfected with 1.1 μg of the pTOPFlash reporter, and 0.8 μg […], in the presence or absence of TCF4 compound and CBP and/or β-catenin, which are present in various concentrations(1.1 to 3.3 μg), is shown to reverse the inhibiting action of TCF4 compound on CBP-mediated transcriptional activation.
In order to determine the inhibitory effect of TCF4 compound on CBP-mediated transcriptional activation, reporter plasmid pTOPFlash (1.1 μg), CBP expression vector (1.1 to 3.3 μg), wild type beta-catenin expression vector (1.1 to 3.3 μg) and pRL-null (0.8 μg) were cotransfected into SW480. Total amount of DNA was adjusted to 6.3 μg. After 24 hours incubation, TCF4 compound was added and cells were washed and luciferase activity was measured. Firefly luciferase activity was normalized to renilla luciferase activity (FIG. 2).

[7] = test system: SW480 cells; experiment: Bioassay for the measurement of IC50 against SW480 cells (TOPFlash/pRL-null luciferase); format: cell-based; conditions: Homo sapiens, 24 hrs treatment, firefly and renilla luciferase activities, read-out: IC50 against SW480 cell growth
Description: FIG. 8. Measurement of IC50 of TCF4 compound for SW480 cells. Cell growth inhibition on SW480 cells is measured at various concentrations of TCF4 compound in order to obtain the IC50 value. Specifically, the degree of inhibition in firefly and renilla luciferase activities by TCF4 compound was determined. […] Detailed procedures are the same as disclosed in Example 8.
SW480 cells were transfected with the usage of Superfect™ transfect reagent (Qiagen, 301307). Cells were trypsinized briefly 1 day before transfection and plated on 6 well plate (5×10^5 cells/well) so that they were 50-80% confluent on the day of transfection. Four microgram (TOPFlash) and one microgram (pRL-null) of DNAs were diluted in 150 μl of serum-free medium, and 30 μl of Superfect™ transfect reagent was added. The DNA-Superfect mixture was incubated at room temperature for 15 min, after that 1 ml of 10% FBS DMEM was added to this complex for an additional 3 hr of incubation. While complexes were forming, cells were washed with PBS twice without antibiotics. The DNA-Superfect™ transfect reagent complexes were applied to the cells before incubating at 37° C. at 5% CO2 for 3 h. After incubation, recovery medium with 10% FBS was added to bring the final volume to 1.18 ml. After 3 hr incubation, the cells were harvested and reseeded to 96 well plate (3×10^4 cells/well). […]

[8] = test system: survivin; experiment: Survivin expression in SW480 cells (RT-PCR and Western blot); format: cell-based, human
Description: FIGS. 5A and 5B. Inhibition of survivin expression by TCF4 compound in […]. FIG. 5A. Surviving mRNA (363 bp) level was assessed by RT-PCR in SW480 cell 24 hours after incubation 25 μM TCF4 compound. β-actin mRNA (564 bp) level is shown as an internal control. FIG. 5B. Survivin protein (MW 16,500) level was assessed by Western blots in SW480 using anti-survivin monoclonal antibody after TCF4 incubation with compound for 48 hrs.
Total RNA was isolated from SW480 cells treated with the TCF4 compound using Rneasy midi kit (Qiagen, Valencia, Calif., 75142). One microgram of RNA was used as a template for RT-PCR. The expression of survivin was evaluated with RT-PCR and Western blot. The primer used to detect fragments of the survivin gene was designed from published human sequences (Cancer Res., 2001, 62, 8664-8667). The sequences used were 5′-[…]-3′ and 5′-[…]-3′, which can give an amplified product of 363 bp. The RT-PCR reaction was processed by Access RT-PCR system (Promega A1260). (FIG. 5) Survivin 6E4 Monoclonal antibody (Cell signaling Technology, 2802) was used for Western blot of TCF4 compound treated SW480 cells. (FIG. 5B).

T1 sequence (Q92793 whole entry): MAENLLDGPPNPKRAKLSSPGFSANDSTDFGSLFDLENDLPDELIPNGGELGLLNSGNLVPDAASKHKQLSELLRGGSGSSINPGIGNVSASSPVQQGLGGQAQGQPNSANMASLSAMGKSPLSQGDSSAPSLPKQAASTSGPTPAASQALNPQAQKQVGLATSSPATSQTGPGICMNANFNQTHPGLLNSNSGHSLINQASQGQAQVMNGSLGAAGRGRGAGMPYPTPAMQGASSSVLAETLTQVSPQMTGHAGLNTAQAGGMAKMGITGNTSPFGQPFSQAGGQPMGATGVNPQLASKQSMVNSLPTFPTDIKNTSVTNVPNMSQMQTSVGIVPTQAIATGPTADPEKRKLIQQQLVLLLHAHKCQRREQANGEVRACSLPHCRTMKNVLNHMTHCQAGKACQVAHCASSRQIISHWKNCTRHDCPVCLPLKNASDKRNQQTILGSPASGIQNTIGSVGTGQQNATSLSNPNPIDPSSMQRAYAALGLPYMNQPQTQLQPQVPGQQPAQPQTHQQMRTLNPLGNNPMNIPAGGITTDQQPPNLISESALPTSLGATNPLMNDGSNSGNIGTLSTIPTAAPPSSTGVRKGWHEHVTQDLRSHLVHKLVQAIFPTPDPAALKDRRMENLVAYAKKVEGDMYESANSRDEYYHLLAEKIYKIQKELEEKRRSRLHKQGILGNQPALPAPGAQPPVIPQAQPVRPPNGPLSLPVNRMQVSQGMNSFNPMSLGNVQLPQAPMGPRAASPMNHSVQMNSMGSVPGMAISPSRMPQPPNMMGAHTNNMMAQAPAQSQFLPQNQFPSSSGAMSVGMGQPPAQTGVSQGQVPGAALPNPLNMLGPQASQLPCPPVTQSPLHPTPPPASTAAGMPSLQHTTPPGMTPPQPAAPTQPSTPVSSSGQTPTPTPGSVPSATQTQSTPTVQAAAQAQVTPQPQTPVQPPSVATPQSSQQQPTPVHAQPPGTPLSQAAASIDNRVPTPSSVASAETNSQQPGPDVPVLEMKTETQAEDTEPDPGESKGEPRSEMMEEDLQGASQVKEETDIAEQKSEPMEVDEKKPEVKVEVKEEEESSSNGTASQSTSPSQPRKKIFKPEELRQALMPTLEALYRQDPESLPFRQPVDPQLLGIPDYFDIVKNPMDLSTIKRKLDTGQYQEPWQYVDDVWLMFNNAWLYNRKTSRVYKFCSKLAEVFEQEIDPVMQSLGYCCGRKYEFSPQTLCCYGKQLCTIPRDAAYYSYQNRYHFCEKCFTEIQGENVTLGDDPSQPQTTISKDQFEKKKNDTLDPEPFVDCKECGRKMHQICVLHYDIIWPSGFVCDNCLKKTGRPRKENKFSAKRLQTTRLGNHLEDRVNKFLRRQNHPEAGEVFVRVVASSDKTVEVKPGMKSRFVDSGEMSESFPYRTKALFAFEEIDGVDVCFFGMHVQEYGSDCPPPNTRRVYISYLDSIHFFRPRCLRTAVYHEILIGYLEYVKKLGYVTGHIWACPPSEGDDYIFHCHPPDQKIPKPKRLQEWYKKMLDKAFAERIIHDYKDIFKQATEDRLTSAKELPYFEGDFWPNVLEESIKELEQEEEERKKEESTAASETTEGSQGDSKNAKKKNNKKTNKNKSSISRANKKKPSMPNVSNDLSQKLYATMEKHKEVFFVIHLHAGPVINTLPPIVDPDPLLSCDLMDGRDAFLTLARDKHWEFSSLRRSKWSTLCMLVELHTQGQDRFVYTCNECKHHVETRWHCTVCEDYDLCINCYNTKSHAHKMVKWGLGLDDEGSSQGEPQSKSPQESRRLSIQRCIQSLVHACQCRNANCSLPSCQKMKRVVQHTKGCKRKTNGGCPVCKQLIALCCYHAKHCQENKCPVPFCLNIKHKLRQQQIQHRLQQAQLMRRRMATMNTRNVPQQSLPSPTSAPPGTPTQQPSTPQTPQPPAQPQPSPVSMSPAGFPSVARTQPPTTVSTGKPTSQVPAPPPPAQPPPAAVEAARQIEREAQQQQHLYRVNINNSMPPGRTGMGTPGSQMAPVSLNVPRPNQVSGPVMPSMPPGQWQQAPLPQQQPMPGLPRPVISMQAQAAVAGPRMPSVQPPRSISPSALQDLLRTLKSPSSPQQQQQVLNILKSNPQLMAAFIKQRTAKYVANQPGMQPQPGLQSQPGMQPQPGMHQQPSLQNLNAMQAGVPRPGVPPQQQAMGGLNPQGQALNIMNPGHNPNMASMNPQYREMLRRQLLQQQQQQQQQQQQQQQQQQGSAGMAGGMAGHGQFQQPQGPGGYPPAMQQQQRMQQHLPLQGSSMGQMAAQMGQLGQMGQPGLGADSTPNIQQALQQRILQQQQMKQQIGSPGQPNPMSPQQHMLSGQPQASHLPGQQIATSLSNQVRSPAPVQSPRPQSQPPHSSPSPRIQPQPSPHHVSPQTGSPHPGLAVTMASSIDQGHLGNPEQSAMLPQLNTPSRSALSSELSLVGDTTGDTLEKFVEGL

## O=C1[C@H](Cc2ccc(O)cc2)N2C(=O)CCN(C(=O)NCc3ccccc3)[C@H]2CN1Cc1cccc2ccccc12 [TCF4 compound, 6-(4-Hydroxy-benzyl)-8-naphthalen-1-ylmethyl-4-oxo-hexahydro-pyrazino[1,2-α]pyrimidine-1-carboxylic Acid Benzylamide]
[1]
  transcription of the TCF4 responsive reporter gene luciferase: inhibits the transcription of the TCF4 responsive reporter gene luciferase in a dose-dependent manner
[2]
  caspase-3 activity: stimulated
[3]
  cell growth and colony formation: correlation between the dose of TCF4 compound and the inhibition of cell growth
[4]
  binding to CBP: Specific binding
[5]
  inhibition of cancer cell growth in combination with 5-FU: remarkable effect for inhibiting cancer cell growth
[6]
  CBP-mediated transcriptional activation: inhibits CBP-mediated transcriptional activation
[7]
  pIC50: ~5.09
[8]; RT-PCR, 25 μM, 24 hours
  survivin mRNA expression level: Inhibits
[8]; Western blot, 48 hrs
  survivin protein expression level: Inhibits
